In ChEMBL document CHEMBL1201862, “PubChem BioAssay data set” (2004):
Calls of active or inactive are those of the source.

Tests used:
[1] = system: Streptococcus sp. 'group A'; test: growth inhibition of control SK(-) GAS strain, dose response, counter-screen for streptokinase expression inhibitor project, luminescence, kanamycin, BacTiterGlo, confirmation (AID 1900); format: functional, organism-based
Streptokinase A = target: T1, Streptokinase A (Streptococcus pyogenes serotype M1, UniProt P10520); test: S. pyogenes streptokinase expression inhibitors, potency, dose response, plasminogen activation absorbance, OD405 (AID 1914); format: functional, Streptococcus pyogenes M1 GAS;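 also: secreted streptokinase activity via plasminogen activation per viability signal from cell pellet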
T1 sequence (P10520 whole entry): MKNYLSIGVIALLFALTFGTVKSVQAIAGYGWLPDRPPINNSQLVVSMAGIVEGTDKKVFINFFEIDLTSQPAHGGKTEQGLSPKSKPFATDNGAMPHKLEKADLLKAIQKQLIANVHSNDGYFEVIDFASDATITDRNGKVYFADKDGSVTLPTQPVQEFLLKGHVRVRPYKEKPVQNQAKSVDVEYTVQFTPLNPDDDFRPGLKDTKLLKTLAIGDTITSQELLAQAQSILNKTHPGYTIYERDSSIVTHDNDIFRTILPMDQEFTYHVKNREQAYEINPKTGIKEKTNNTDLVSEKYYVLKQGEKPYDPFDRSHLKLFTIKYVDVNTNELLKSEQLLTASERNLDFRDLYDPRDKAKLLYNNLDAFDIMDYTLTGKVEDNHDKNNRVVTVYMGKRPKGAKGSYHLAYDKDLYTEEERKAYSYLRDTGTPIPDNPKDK

[2] = target: T2, G-protein coupled receptor 55 (Homo sapiens, UniProt Q9Y2T6); test: GPR55 antagonists blocking LPI-driven arrestin recruitment, primary screen, imaging, U2OS, beta-arrestin-GFP, LPI agonist (AID 2013); format: functional;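 also: antagonist potency measured as reduced agonist-driven arrestin aggregation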
T2 sequence (Q9Y2T6 whole entry): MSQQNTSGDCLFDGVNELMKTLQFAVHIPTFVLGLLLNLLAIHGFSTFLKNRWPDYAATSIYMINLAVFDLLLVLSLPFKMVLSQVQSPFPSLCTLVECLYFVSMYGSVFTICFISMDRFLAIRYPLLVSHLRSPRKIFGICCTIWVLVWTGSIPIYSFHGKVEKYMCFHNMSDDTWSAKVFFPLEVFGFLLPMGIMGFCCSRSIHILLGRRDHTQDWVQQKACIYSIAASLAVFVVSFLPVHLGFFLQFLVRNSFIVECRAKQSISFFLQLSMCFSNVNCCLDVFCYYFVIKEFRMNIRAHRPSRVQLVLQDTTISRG

Streptococcus = test: Group A Streptococcus viability loss, dose response, counter-screen for streptokinase expression inhibitor project, luminescence, BacTiterGlo (AID 1915); format: functional, organism-based;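 also: potency for reduction of bacterial viability or growth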
Cannabinoid receptor 1 [3] = target: T3, Cannabinoid receptor 1 (Homo sapiens, UniProt P21554); test: SAR analysis of antagonists of the Cannabinoid Receptor 1 using an Image-Based Assay - Set 2. [Related pubchem assays (depositor defined):AID2013, AID2026]; format: functional
T3 sequence (P21554 whole entry): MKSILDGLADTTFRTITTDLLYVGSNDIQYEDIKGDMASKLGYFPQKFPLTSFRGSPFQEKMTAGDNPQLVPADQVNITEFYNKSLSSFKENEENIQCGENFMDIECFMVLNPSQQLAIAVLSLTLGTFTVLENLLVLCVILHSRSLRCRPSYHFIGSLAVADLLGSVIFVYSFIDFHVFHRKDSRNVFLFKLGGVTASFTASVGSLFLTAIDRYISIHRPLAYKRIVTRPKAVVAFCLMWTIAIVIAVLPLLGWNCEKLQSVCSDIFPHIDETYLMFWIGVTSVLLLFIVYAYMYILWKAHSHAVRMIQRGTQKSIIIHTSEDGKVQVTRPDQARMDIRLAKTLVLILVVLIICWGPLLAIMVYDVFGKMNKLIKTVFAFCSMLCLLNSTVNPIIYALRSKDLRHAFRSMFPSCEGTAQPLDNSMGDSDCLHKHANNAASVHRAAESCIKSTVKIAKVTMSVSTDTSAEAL

[4] = target: T4, G-protein coupled receptor 35 (Homo sapiens, UniProt Q9HC97); test: SAR analysis of Agonists of the GPR35 Receptor using an Image-Based Assay - Set 2. [Related pubchem assays (depositor defined):AID2013, AID2026]; format: functional
T4 sequence (Q9HC97 whole entry): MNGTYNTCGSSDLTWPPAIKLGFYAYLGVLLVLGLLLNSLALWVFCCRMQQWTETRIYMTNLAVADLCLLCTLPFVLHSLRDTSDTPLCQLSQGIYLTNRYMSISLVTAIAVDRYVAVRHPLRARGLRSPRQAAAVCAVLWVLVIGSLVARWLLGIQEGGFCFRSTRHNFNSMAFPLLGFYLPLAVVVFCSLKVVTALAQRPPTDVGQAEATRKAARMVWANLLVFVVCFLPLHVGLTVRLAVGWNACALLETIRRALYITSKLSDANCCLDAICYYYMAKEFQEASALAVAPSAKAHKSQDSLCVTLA

Cannabinoid receptor 2 [5] = target: T5, Cannabinoid receptor 2 (Homo sapiens, UniProt P34972); test: SAR analysis of antagonists of the Cannabinoid Receptor 2 using an Image-Based Assay. [Related pubchem assays (depositor defined):AID2013, AID2026]; format: functional
T5 sequence (P34972 whole entry): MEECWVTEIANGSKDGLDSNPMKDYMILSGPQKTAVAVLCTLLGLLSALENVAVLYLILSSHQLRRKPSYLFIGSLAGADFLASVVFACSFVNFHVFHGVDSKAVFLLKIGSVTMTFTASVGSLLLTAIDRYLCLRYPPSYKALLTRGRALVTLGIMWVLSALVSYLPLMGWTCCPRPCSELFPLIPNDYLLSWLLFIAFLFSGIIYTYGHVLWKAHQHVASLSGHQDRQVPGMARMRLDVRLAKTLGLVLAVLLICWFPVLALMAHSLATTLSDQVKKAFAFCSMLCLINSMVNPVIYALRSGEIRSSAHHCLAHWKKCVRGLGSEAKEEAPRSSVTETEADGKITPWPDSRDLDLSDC

Cannabinoid receptor 1 [6] = target: T3, Cannabinoid receptor 1; test: SAR analysis of agonists of the Cannabinoid Receptor 1 using an Image-Based Assay - Set 2. [Related pubchem assays (depositor defined):AID2013, AID2026]; format: functional
[7] = target: T4, G-protein coupled receptor 35; test: SAR analysis of Antagonists of the GPR35 Receptor using an Image-Based Assay - Set 3. [Related pubchem assays (depositor defined):AID2013, AID2026]; format: functional
[8] = target: T2, G-protein coupled receptor 55; test: GPR55 antagonist potency of analogs, SAR follow-up, imaging, U2OS, beta-arrestin-GFP, LPI agonist, set 2 (AID 2820); format: functional
Cannabinoid receptor 2 [9] = target: T5, Cannabinoid receptor 2; test: SAR analysis of agonists of the Cannabinoid Receptor 2 using an Image-Based Assay. [Related pubchem assays (depositor defined):AID2013, AID2026]; format: functional
[10] = target: T6, Tyrosine-protein phosphatase non-receptor type 22 (Homo sapiens, UniProt Q9Y2R2); test: SAR LYP1 Fluorescent Assay using pCAP substrate for In Vitro dose response studies - Set 2. [Related pubchem assays (depositor defined):AID1779, AID1784, AID2135, AID449727]; format: functional
T6 sequence (Q9Y2R2 whole entry): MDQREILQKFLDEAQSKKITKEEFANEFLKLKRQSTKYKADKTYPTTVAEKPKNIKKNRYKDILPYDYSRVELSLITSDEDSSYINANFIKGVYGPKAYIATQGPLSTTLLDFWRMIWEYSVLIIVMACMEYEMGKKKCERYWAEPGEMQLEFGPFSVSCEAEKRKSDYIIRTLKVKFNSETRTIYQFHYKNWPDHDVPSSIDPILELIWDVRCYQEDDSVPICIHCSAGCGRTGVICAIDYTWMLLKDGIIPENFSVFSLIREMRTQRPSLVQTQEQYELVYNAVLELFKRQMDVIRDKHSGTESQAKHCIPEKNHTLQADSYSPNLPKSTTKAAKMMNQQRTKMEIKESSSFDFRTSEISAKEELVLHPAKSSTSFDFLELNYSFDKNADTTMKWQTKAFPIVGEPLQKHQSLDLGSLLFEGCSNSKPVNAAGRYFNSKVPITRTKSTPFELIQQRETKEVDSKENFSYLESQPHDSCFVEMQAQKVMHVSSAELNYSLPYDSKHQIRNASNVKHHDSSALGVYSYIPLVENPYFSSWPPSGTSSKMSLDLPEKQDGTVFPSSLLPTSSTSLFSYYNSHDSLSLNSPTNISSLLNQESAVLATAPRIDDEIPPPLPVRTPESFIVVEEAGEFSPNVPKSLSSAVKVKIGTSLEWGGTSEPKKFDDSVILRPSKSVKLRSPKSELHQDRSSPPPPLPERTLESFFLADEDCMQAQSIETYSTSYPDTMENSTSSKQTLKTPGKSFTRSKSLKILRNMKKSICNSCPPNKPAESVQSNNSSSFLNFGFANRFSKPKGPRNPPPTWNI

[11] = target: Tyrosine-protein phosphatase non-receptor type 12 (Homo sapiens, UniProt Q05209); test: SAR Selectivity Analysis of small molecule inhibitors of PEST using pCAP in a fluorescence assay. [Related pubchem assays (depositor defined):AID1779, AID1784, AID2135]; format: functional
Chain of Tyrosine-protein phosphatase non-receptor type 12 (Q05209 whole entry): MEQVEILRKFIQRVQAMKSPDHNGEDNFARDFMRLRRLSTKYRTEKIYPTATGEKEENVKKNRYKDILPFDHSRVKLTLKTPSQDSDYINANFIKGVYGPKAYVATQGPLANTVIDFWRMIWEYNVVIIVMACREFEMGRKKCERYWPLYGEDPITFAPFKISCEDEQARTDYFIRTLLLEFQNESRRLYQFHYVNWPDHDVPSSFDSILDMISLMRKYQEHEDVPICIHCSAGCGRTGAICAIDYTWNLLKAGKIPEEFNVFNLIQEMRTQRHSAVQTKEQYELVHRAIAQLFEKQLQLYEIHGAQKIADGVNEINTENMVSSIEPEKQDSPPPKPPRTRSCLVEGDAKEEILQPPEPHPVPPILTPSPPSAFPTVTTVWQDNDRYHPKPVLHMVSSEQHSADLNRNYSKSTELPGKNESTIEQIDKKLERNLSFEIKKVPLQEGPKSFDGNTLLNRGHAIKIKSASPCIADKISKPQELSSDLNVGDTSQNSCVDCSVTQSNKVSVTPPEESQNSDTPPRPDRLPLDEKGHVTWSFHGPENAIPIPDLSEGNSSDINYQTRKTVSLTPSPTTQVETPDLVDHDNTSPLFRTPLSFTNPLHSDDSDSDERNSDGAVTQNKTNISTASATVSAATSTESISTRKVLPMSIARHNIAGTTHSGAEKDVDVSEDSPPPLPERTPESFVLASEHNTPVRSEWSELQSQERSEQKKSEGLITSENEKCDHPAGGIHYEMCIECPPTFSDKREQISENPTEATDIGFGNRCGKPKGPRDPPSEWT

[12] = target: T6, Tyrosine-protein phosphatase non-receptor type 22; test: SAR LYP1 Fluorescent Assay using OMFP substrate for In Vitro dose response studies - Set 3. [Related pubchem assays (depositor defined):AID1779, AID1784, AID2140, AID2686]; format: functional
[13] = target: T7, Tyrosine-protein phosphatase non-receptor type 7 (Homo sapiens, UniProt P35236); test: HePTP (PTPN7) phosphatase inhibitor potency, SAR follow-up, biochemical, set 2 (AID 449736); format: functional
T7 sequence (P35236 whole entry): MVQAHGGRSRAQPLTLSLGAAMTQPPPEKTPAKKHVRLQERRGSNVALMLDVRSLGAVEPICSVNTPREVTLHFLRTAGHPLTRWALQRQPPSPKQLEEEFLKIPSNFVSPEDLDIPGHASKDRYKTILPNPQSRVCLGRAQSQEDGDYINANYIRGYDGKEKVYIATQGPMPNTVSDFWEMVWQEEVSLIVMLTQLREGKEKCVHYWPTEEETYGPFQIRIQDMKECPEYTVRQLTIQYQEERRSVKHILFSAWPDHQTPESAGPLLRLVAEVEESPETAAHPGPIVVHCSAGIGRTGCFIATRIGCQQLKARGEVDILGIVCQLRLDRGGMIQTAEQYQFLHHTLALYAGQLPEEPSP

[14] = target: T6, Tyrosine-protein phosphatase non-receptor type 22; test: LYP (PTPN22) phosphatase inhibitor potency, SAR follow-up, biochemical, pCAP fluorogenic substrate, fluorescence, set 3 (AID 449727); format: functional
[15] = target: T6, Tyrosine-protein phosphatase non-receptor type 22; test: PubChem AID 2135
[16] = target: T6, Tyrosine-protein phosphatase non-receptor type 22; test: SAR LYP1 Fluorescent Assay using OMFP substrate for In Vitro dose response studies - Set 2. [Related pubchem assays (depositor defined):AID1779, AID1784, AID2140, AID449726, AID488869]; format: functional

With Cc1ccc(-n2cc3c(-c4cccc(Br)c4)nnc(C)c3n2)cc1 the EC50 [1] was 7.37 µM (active), the EC50 (Streptokinase A) was 94.1 µM (active) and the IC50 [2] was 2.21 µM (active). The EC50 (Streptococcus) was 46.9 µM (active), the IC50 (Cannabinoid receptor 1 [3]) was 2.94 µM (active) and the EC50 [4] was > 32 µM (inactive). For the same molecule, the IC50 (Cannabinoid receptor 2 [5]) was 23.8 µM (inactive), the EC50 (Cannabinoid receptor 1 [6]) was > 32 µM (inactive) and the IC50 [7] was > 32 µM (inactive). The IC50 [8] was 1.24 µM (active) and the EC50 (Cannabinoid receptor 2 [9]) was > 32 µM (inactive).
For N#C/C(=C/c1ccc(OCc2ccc(F)cc2)c(Br)c1)c1ccc(C(=O)O)cc1, the IC50 [10] was 10.8 µM (active), the IC50 [11] was 7.56 µM (active) and the IC50 [12] was 37 µM (active). For the same molecule, the IC50 [13] was 1.36 µM (active), the IC50 [14] was 15.8 µM (active) and the IC50 [15] was 4.37 µM (active). For the same molecule, the IC50 [16] was 13.7 µM (active).
